Laboratory results as given in PubChem BioAssay (NCI).
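Results reflect a 48-hour exposure of cells in 96-well plates to compound at five concentrations. Definition used: TGI = concentration required for complete inhibition of growth.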

What was measured:
Assay in all cases: NCI tumour cell line growth inhibition, 48 h
MOLT-4 leukemia = system: MOLT-4 leukemia
RPMI-8226 leukemia = system: RPMI-8226 leukemia
CAKI-1 renal = system: CAKI-1 renal
HT29 colon = system: HT29 colon
MDA-MB-231 breast = system: MDA-MB-231 breast
MALME-3M melanoma = system: MALME-3M melanoma
SK-MEL-5 melanoma = system: SK-MEL-5 melanoma
UO-31 renal = system: UO-31 renal
IGROV1 ovarian = system: IGROV1 ovarian
TK-10 renal = system: TK-10 renal
SW-620 colon = system: SW-620 colon
ACHN renal = system: ACHN renal
BT-549 breast = system: BT-549 breast
LOX IMVI melanoma = system: LOX IMVI melanoma
HOP-92 NSCLC = system: HOP-92 NSCLC
CCRF-CEM leukemia = system: CCRF-CEM leukemia
HS 578T breast = system: HS 578T breast
MCF7 breast = system: MCF7 breast
HL-60(TB) leukemia = system: HL-60(TB) leukemia
UACC-257 melanoma = system: UACC-257 melanoma
HCT-15 colon = system: HCT-15 colon
HCT-116 colon = system: HCT-116 colon
NCI-H23 lung = system: NCI-H23 lung
786-0 renal = system: 786-0 renal
NCI-H460 lung = system: NCI-H460 lung
HCC-2998 colon = system: HCC-2998 colon
SNB-75 CNS = system: SNB-75 CNS
SK-MEL-28 melanoma = system: SK-MEL-28 melanoma
SR leukemia = system: SR leukemia
NCI/ADR-RES ovarian = system: NCI/ADR-RES ovarian
HOP-62 NSCLC = system: HOP-62 NSCLC
OVCAR-3 ovarian = system: OVCAR-3 ovarian
SK-MEL-2 melanoma = system: SK-MEL-2 melanoma
EKVX NSCLC = system: EKVX NSCLC
SK-OV-3 ovarian = system: SK-OV-3 ovarian
NCI-H226 lung = system: NCI-H226 lung
A498 renal = system: A498 renal
KM12 colon = system: KM12 colon
UACC-62 melanoma = system: UACC-62 melanoma
T-47D breast = system: T-47D breast
PC-3 prostate = system: PC-3 prostate
NCI-H522 lung = system: NCI-H522 lung
K-562 leukemia = system: K-562 leukemia
SF-295 CNS = system: SF-295 CNS
U251 CNS = system: U251 CNS
MDA-MB-435 = system: MDA-MB-435
MDA-N = system: MDA-N
SF-268 CNS = system: SF-268 CNS
SNB-19 CNS = system: SNB-19 CNS
OVCAR-8 ovarian = system: OVCAR-8 ovarian
DU-145 prostate = system: DU-145 prostate
RXF 393 renal = system: RXF 393 renal
SN12C renal = system: SN12C renal
M14 melanoma = system: M14 melanoma
A549 NSCLC = system: A549 NSCLC
SF-539 CNS = system: SF-539 CNS
COLO 205 colon = system: COLO 205 colon
OVCAR-4 ovarian = system: OVCAR-4 ovarian
OVCAR-5 ovarian = system: OVCAR-5 ovarian

Molecule `O=c1oc2ccccc2cc1-c1nc2ccc([N+](=O)[O-])cc2o1` has a TGI (MOLT-4 leukemia) greater than 100 µM, a TGI (RPMI-8226 leukemia) greater than 100 µM and a TGI (CAKI-1 renal) greater than 100 µM. It also gave a TGI (HT29 colon) greater than 100 µM, a TGI (MDA-MB-231 breast) greater than 100 µM and a TGI (MALME-3M melanoma) greater than 100 µM. The TGI (SK-MEL-5 melanoma) was greater than 100 µM, the TGI (UO-31 renal) was greater than 100 µM and the TGI (IGROV1 ovarian) was greater than 100 µM. The TGI (TK-10 renal) was greater than 100 µM, the TGI (SW-620 colon) was greater than 100 µM and the TGI (ACHN renal) was 80.9 µM. It also gave a TGI (BT-549 breast) greater than 100 µM, a TGI (LOX IMVI melanoma) greater than 100 µM and a TGI (HOP-92 NSCLC) greater than 100 µM. The TGI (CCRF-CEM leukemia) was greater than 100 µM, the TGI (HS 578T breast) was greater than 100 µM and the TGI (MCF7 breast) was greater than 100 µM. It also gave a TGI (HL-60(TB) leukemia) greater than 100 µM, a TGI (UACC-257 melanoma) greater than 100 µM and a TGI (HCT-15 colon) greater than 100 µM. For the same molecule, the TGI (HCT-116 colon) was greater than 100 µM, the TGI (NCI-H23 lung) was greater than 100 µM and the TGI (786-0 renal) was greater than 100 µM. The TGI (NCI-H460 lung) was greater than 100 µM, the TGI (HCC-2998 colon) was greater than 100 µM and the TGI (SNB-75 CNS) was greater than 100 µM. The TGI (SK-MEL-28 melanoma) was greater than 100 µM, the TGI (SR leukemia) was greater than 100 µM and the TGI (NCI/ADR-RES ovarian) was greater than 100 µM. For the same molecule, the TGI (HOP-62 NSCLC) was greater than 100 µM, the TGI (OVCAR-3 ovarian) was greater than 100 µM and the TGI (SK-MEL-2 melanoma) was greater than 100 µM. It also gave a TGI (EKVX NSCLC) greater than 100 µM, a TGI (SK-OV-3 ovarian) greater than 100 µM and a TGI (NCI-H226 lung) greater than 100 µM. For the same molecule, the TGI (A498 renal) was greater than 100 µM, the TGI (KM12 colon) was greater than 100 µM and the TGI (UACC-62 melanoma) was greater than 100 µM. For the same molecule, the TGI (T-47D breast) was greater than 100 µM, the TGI (PC-3 prostate) was greater than 100 µM and the TGI (NCI-H522 lung) was greater than 100 µM. It also gave a TGI (K-562 leukemia) greater than 100 µM, a TGI (SF-295 CNS) greater than 100 µM and a TGI (U251 CNS) greater than 100 µM. The TGI (MDA-MB-435) was greater than 100 µM, the TGI (MDA-N) was greater than 100 µM and the TGI (SF-268 CNS) was greater than 100 µM. The TGI (SNB-19 CNS) was 68.5 µM, the TGI (OVCAR-8 ovarian) was greater than 100 µM and the TGI (DU-145 prostate) was greater than 100 µM. The TGI (RXF 393 renal) was greater than 100 µM, the TGI (SN12C renal) was greater than 100 µM and the TGI (M14 melanoma) was greater than 100 µM. The TGI (A549 NSCLC) was greater than 100 µM, the TGI (SF-539 CNS) was greater than 100 µM and the TGI (COLO 205 colon) was greater than 100 µM.

With `CCOC(=O)c1cc(-c2ccc(OC)c(OC)c2)c[nH]1` the TGI (MOLT-4 leukemia) was greater than 10 µM, the TGI (RPMI-8226 leukemia) was greater than 10 µM and the TGI (CAKI-1 renal) was greater than 10 µM. For the same molecule, the TGI (HT29 colon) was greater than 10 µM, the TGI (MDA-MB-231 breast) was greater than 10 µM and the TGI (MALME-3M melanoma) was greater than 10 µM. For the same molecule, the TGI (SK-MEL-5 melanoma) was greater than 10 µM, the TGI (UO-31 renal) was greater than 10 µM and the TGI (IGROV1 ovarian) was greater than 10 µM. For the same molecule, the TGI (OVCAR-4 ovarian) was greater than 10 µM, the TGI (TK-10 renal) was greater than 10 µM and the TGI (ACHN renal) was greater than 10 µM. The TGI (BT-549 breast) was greater than 10 µM, the TGI (LOX IMVI melanoma) was greater than 10 µM and the TGI (HOP-92 NSCLC) was greater than 10 µM. For the same molecule, the TGI (CCRF-CEM leukemia) was greater than 10 µM, the TGI (HS 578T breast) was greater than 10 µM and the TGI (MCF7 breast) was greater than 10 µM. The TGI (HL-60(TB) leukemia) was greater than 10 µM, the TGI (UACC-257 melanoma) was greater than 10 µM and the TGI (HCT-15 colon) was greater than 10 µM. The TGI (HCT-116 colon) was greater than 10 µM, the TGI (NCI-H23 lung) was greater than 10 µM and the TGI (786-0 renal) was greater than 10 µM. It also gave a TGI (NCI-H460 lung) greater than 10 µM, a TGI (HCC-2998 colon) greater than 10 µM and a TGI (SNB-75 CNS) greater than 10 µM. The TGI (SK-MEL-28 melanoma) was greater than 10 µM, the TGI (SR leukemia) was greater than 10 µM and the TGI (NCI/ADR-RES ovarian) was greater than 10 µM. For the same molecule, the TGI (HOP-62 NSCLC) was greater than 10 µM, the TGI (OVCAR-3 ovarian) was greater than 10 µM and the TGI (SK-MEL-2 melanoma) was greater than 10 µM. For the same molecule, the TGI (EKVX NSCLC) was greater than 10 µM, the TGI (SK-OV-3 ovarian) was greater than 10 µM and the TGI (NCI-H226 lung) was greater than 10 µM. For the same molecule, the TGI (A498 renal) was greater than 10 µM, the TGI (OVCAR-5 ovarian) was greater than 10 µM and the TGI (KM12 colon) was greater than 10 µM. It also gave a TGI (UACC-62 melanoma) greater than 10 µM, a TGI (T-47D breast) greater than 10 µM and a TGI (PC-3 prostate) greater than 10 µM. It also gave a TGI (NCI-H522 lung) greater than 10 µM, a TGI (K-562 leukemia) greater than 10 µM and a TGI (SF-295 CNS) greater than 10 µM. It also gave a TGI (U251 CNS) greater than 10 µM, a TGI (MDA-MB-435) greater than 10 µM and a TGI (MDA-N) greater than 10 µM. It also gave a TGI (SF-268 CNS) greater than 10 µM, a TGI (SNB-19 CNS) greater than 10 µM and a TGI (OVCAR-8 ovarian) greater than 10 µM. For the same molecule, the TGI (DU-145 prostate) was greater than 10 µM, the TGI (RXF 393 renal) was greater than 10 µM and the TGI (SN12C renal) was greater than 10 µM. It also gave a TGI (M14 melanoma) greater than 10 µM, a TGI (A549 NSCLC) greater than 10 µM and a TGI (SF-539 CNS) greater than 10 µM. It also gave a TGI (COLO 205 colon) greater than 10 µM.
